According to EP1067939B1, “USE OF STEROIDAL ALKALOID DERIVATIVES AS INHIBITORS OF HEDGEHOG PROTEIN SIGNALING PATHWAYS” (The Johns Hopkins University, priority 1998, dated 1999):

Tested on: vibrissa follicle
Assay: Vibrissa follicle explant cultures
Format: cell-based, mouse
Description: Vibrissa follicle explants were established using CD- I mouse embryos at 13.5 days of gestation according to a previously described protocol (Hirai et al., 1989), with minor midifications. Vibrissa pads were transferred onto Nuclepore filters (13 mm, 8 µm pores), and floated on, 2 ml of medium [DMEM (Life Technologies. Gaithersburg, MD) + Ham's F12 medium (Life Technologies) (1:1), with 1% FCS (Intergen, Purchase. NY), penicillin (50 units/ml) and streptomycin (50 gg/ml) (Life Technologies)] in 6-well plates. […] Explants were fed fresh medium every two days. Microdissection was performed with the aid of a Nikon SMZ-2T stereomicroscope and photomicrographs were taken using an Olympus OM-4 camera. Cycloparnine was stored at -20 as a 10 mM stock in 95% EtOH.
RNA was obtained by solubilizing individual explants in TriZol (Life Sciences) and isolating as recommended by the manufacturer. cDNA was synthesized using SuperScript II Rnase H reverse transcriptase with random primers (Life Technologies), and RT-PCR performed using the following primers: MHKA1 (318 bp product), (forward 5'-[…]-3' and reverse 5'-[…]-3'); hacl-1 (308 bp product), (forward 5'-[…].3 and reverse 5'-[…]-3'); profilaggrin (330 bp product), (forward 5-[…]-3' and reverse 5'-[…]-3') (Bickenbach et al., 1995); P actin (421 bp product), (for-ward 5'-[…]-3' and reverse 5'[…]-3') (Walterhouse et al., 1993). The following PCR conditions were used for MHKA1. […]
Explants were established using vibrissa pads obtained from mice at 13.5 days of gestation (Hirai et al., 1989). […] These follicles contained hair shafts and expressed genes encoding mouse hair keratin A I (MHKA 1) (Kaytes et al., 199 1) and a hair cortex-specific marker Hacl- 1 (Huh et al., 1994), detected by RT-PCR (Fig. 11B). […] In keeping with our results obtained using Shh mutant skin, hair-specific transcripts are detected in cycloparnine-treated grafts (Fig. 11B) despite their altered development, providing further support for the notion that biochemical differentiation of the follicle is not necessarily coupled to its morphogenesis.

[1] = cultured vibrissa explants, RT-PCR

CC1=C2C[C@H]3[C@@H](CC=C4C[C@@H](O)CC[C@@]43C)[C@@H]2CC[C@]12O[C@@H]1C[C@H](C)CN[C@H]1[C@H]2C [Cyclopamine, cyclopamine]
late-stage follicle differentiation markers [1]: detected
profilaggrin mRNA (epidermal differentiation) [1]: accumulate profilaggrin mRNA
Morphogenesis of vibrissa follicles (cyclopamine present in the medium for the duration of the experiment, concentration printed as I ∼M): blocked
